We go through one compound from publication PMC3886901, “Vestigialization of an Allosteric Switch: Genetic and Structural Mechanisms for the Evolution of Constitutive Activity in a Steroid Hormone Receptor” (PLoS Genetics, 2014).

The assay deals with T1, AncLophoSR (ancestral lophotrochozoan steroid receptor, ML reconstruction; GenBank KC261633).
T1 construct: resurrected LBD with the hinge domain and C-terminus of CgER, Gal4-DBD fusion
The experiment in a line: Gal4-DBD fusion dual luciferase reporter assay in transfected CHO-K1 cells. The format is cell-based, synthetic construct. (In general: In a reporter assay the amount or activity of a reporter protein is the signal.)

As usually defined, the EC50 is the concentration that produces a half-maximal response. Low values mean an effect from little substance, high ones a need for much substance. `C[C@]12CC[C@@H]3c4ccc(O)cc4CC[C@H]3[C@@H]1CC[C@@H]2O` [17β-estradiol] returned a half-maximal effective concentration (EC50) of 12 nM.
